Experiment [1] has as its system S. aureus strains. Description: E-Test MIC of oxacillin. Conditions: Staphylococcus aureus. Type of experiment: cell-based.
In experiment [2] the test system is low-level resistant strains (MRSA). The note with it: cited from earlier work.

SMILES strings stand for the structures. Bounds are passed on as bounds.

Broadly, the MIC is the lowest concentration found to suppress growth. On to `Cc1onc(-c2ccccc2)c1C(=O)N[C@@H]1C(=O)N2[C@@H]1SC(C)(C)[C@@H]2C(=O)O` [OX, oxacillin], for which the minimum inhibitory concentration (MIC) is 0.25 µg/mL in experiment [1] (strain 31 (mecA −, PBP2 −)); 16 µg/mL in experiment [1] (strain 34 (mecA +, PBP2 +)); 0.19 µg/mL in experiment [1] (strain 2325 (mecA −, PBP2 −)); more than 4 µg/mL in experiment [1] (strain 3421 (mecA +)); 1.5 µg/mL in experiment [1] (strain 3424 (mecA −, PBP2 −)); 0.38 µg/mL in experiment [1] (strain 3425 (mecA −, PBP2 −)). The MIC in experiment [1] (strain 5594 (mecA +, PBP2 +)) amounted to 0.38 µg/mL; in experiment [1] (strain 5595 (mecA +, PBP2 +)), 0.5 µg/mL; in experiment [1] (strain 5596 (mecA +, PBP2 +)) it was 0.5 µg/mL; in experiment [1] (strain 5597 (mecA +, PBP2 +)), 32 µg/mL; in experiment [1] (strain 5598 (mecA +, PBP2 +)) it was 32 µg/mL; in experiment [1] (strain 5599 (mecA +, PBP2 +)), 16 µg/mL. Besides, the MIC was 8 µg/mL in experiment [1] (strain T775 (mecA +, PBP2 +)); 32 µg/mL in experiment [1] (strain T2109 (mecA +, PBP2 +)); 8 µg/mL in experiment [1] (strain T2110 (mecA +, PBP2 +)); 32 µg/mL in experiment [1] (strain T2130 (mecA +, PBP2 +)); 6 µg/mL in experiment [1] (strain T4031 (mecA +, PBP2 +)); 1.5 µg/mL in experiment [1] (strain T4033 (mecA +, PBP2 +)). Further, the minimal inhibitory concentration (MIC) in experiment [1] (strain T4035 (mecA +, PBP2 +)) came out at 8 µg/mL. For the same compound, the “oxacillin MIC of low-level resistant strains, at or just above the susceptible breakpoint” value in experiment [2] is 4 to 8 µg/mL.
